Earlier results on two molecules are cited in patent US7524883B2, “Eponemycin and epoxomicin analogs and uses thereof” (Eisai R&D Management Co., Ltd., priority 2002, dated 2009).

For this data set, the system named is 20S proteasome.

With `C=C(C)C[C@H](NC(=O)[C@H](CO)NC(=O)CCCCC(C)C)C(=O)[C@@]1(CO)CO1` [Eponemycin], the “binding to the 20S proteasome” value was “bind covalently and irreversibly”.

For `CC[C@H](C)[C@H](NC(=O)[C@H]([C@@H](C)CC)N(C)C(C)=O)C(=O)N[C@H](C(=O)N[C@@H](CC(C)C)C(=O)[C@@]1(C)CO1)[C@@H](C)O` [Epoxomicin], the “binding to the 20S proteasome” value is “bind covalently and irreversibly”.
